This assay concerns the target Coagulation factor X (Homo sapiens, UniProt P00742). In words: Inhibition Assay.

SMILES strings stand for the structures. Values joined by “and” are separate entries in the source; they are usually repeats but may differ in a detail not shown here. Identical values can stand only once.

Sequence of Coagulation factor X (P00742 41-179 limits assumed): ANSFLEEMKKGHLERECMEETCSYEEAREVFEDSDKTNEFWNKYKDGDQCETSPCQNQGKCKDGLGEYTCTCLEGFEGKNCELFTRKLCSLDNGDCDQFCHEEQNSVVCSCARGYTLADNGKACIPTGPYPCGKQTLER
Sequence of Coagulation factor X (P00742 235-488 limits assumed): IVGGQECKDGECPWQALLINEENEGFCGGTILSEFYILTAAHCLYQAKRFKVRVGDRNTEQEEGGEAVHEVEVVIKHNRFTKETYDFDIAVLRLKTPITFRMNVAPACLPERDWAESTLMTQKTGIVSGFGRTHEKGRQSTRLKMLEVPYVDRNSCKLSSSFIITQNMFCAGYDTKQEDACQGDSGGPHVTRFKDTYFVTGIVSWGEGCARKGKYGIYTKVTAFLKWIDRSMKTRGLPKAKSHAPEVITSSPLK

Take `NS(=O)(=O)c1ccccc1-c1ccc(NC(=O)[C@H]2CC(O)CN2C(=O)Nc2ccc(Cl)cc2)c(F)c1` (stereo partly drawn) [4-Substituted Pyrrolidine Ring, 14]: the IC50 stood at 0.75 nM. As to `CS(=O)(=O)c1ccccc1-c1ccc(NC(=O)[C@H]2CC(F)CN2C(=O)Nc2ccc(Cl)cc2)c(F)c1` (stereo partly drawn) [4-Substituted Pyrrolidine Ring, 17], the IC50 was 7 nM and 1.2 nM. For `CS(=O)(=O)c1ccccc1-c1ccc(NC(=O)[C@H]2CC(=O)CN2C(=O)Nc2ccc(Cl)cc2)c(F)c1` [4-Substituted Pyrrolidine Ring, 20] the value was 2.9 nM; for `CS(=O)(=O)c1ccccc1-c1ccc(NC(=O)[C@H]2CC(F)(F)CN2C(=O)Nc2ccc(Cl)cc2)c(F)c1` [4-Substituted Pyrrolidine Ring, 21], 5 nM; for `CS(=O)(=O)c1ccccc1-c1ccc(NC(=O)[C@H]2CC(O)CN2C(=O)Nc2ccc(Cl)cn2)c(F)c1` (stereo partly drawn) [4-Substituted Pyrrolidine Ring, 34], 4.3 nM. Turning to `COC1C[C@H](C(=O)Nc2ccc(-c3ccccc3S(C)(=O)=O)cc2F)N(C(=O)Nc2ccc(Cl)cn2)C1` (stereo partly drawn) [4-Substituted Pyrrolidine Ring, 35], half-maximal inhibition (IC50) required 1 nM. Against the preceding compound, the IC50 is about 4.3-fold lower. Regarding `CS(=O)(=O)c1ccccc1-c1ccc(NC(=O)[C@H]2CC(O)CN2C(=O)Nc2ccc(F)cc2)c(F)c1` (stereo partly drawn) [4-Substituted Pyrrolidine Ring, 36], 7.6 nM corresponded to half-maximal inhibition (IC50). In turn, `NS(=O)(=O)c1ccccc1-c1ccc(NC(=O)C2CCCN2C(=O)Nc2ccc(Br)cc2)c(F)c1` (stereo not drawn) [P1 Phenyl Ring, 22] displayed an IC50 of 33 nM.

On to `Cc1ccc(NC(=O)N2CCCC2C(=O)Nc2ccc(-c3ccccc3S(N)(=O)=O)cc2F)cc1` (stereo not drawn) [P1 Phenyl Ring, 24], for which the IC50 turned out to be 389 nM.

On to `Cc1ccc(NC(=O)N2CCCC2C(=O)Nc2ccc(-c3ccccc3S(N)(=O)=O)cc2F)cc1F` (stereo not drawn) [P1 Phenyl Ring, 25], for which the concentration for half-maximal inhibition (IC50) came to 516 nM. This IC50 and that of the compound before are within 1.5-fold of each other.

For the compound `COc1ccc(NC(=O)N2CCCC2C(=O)Nc2ccc(-c3ccccc3S(N)(=O)=O)cc2F)cc1` (stereo not drawn) [P1 Phenyl Ring, 26], the IC50 turned out to be 873 nM. To `NS(=O)(=O)c1ccccc1-c1ccc(NC(=O)C2CCCN2C(=O)Nc2ccccc2)c(F)c1` (stereo not drawn) [P1 Phenyl Ring, 27] belongs 951 nM; to `NS(=O)(=O)c1ccccc1-c1ccc(NC(=O)C2CCCN2C(=O)Nc2cccc(Cl)c2)c(F)c1` (stereo not drawn) [P1 Phenyl Ring, 28], above 4000 nM. Take `NS(=O)(=O)c1ccccc1-c1ccc(NC(=O)C2CCCN2C(=O)Nc2ccc(Cl)c(Cl)c2)c(F)c1` (stereo not drawn) [P1 Phenyl Ring, 29]: the half-maximal inhibitory concentration (IC50) is above 4000 nM. Regarding `CCc1ccc(NC(=O)N2CCCC2C(=O)Nc2ccc(-c3ccccc3S(N)(=O)=O)cc2F)cc1` (stereo not drawn) [P1 Phenyl Ring, 30], the IC50 is above 4000 nM.

`NS(=O)(=O)c1ccccc1-c1ccc(NC(=O)C2CCCN2C(=O)Nc2ccc(C(F)(F)F)cc2)c(F)c1` (stereo not drawn) [P1 Phenyl Ring, 31] displayed an IC50 above 4000 nM. `COc1cccc(NC(=O)N2CCCC2C(=O)Nc2ccc(-c3ccccc3S(N)(=O)=O)cc2F)c1` (stereo not drawn) [P1 Phenyl Ring, 32]: the IC50 is above 4000 nM. `NS(=O)(=O)c1ccccc1-c1ccc(NC(=O)C2CCCN2C(=O)Nc2ccccc2F)c(F)c1` (stereo not drawn) [P1 Phenyl Ring, 33]: the IC50 is above 4000 nM.

Source of the values: BindingDB's records for doi:10.1111/j.1747-0285.2007.00520.x (Pfizer, 2007).
